Measurements from patent US20210238176A1, “PESTICIDALLY-ACTIVE BICYCLIC HETEROAROMATIC COMPOUNDS” (SYNGENTA CROP PROTECTION AG, priority 2018, published 2021).

Tests used:
Format in all cases: in vivo
[1] = system: Myzus persicae (Green Peach Aphid); test: Myzus persicae (green peach aphid) feeding/contact activity, sunflower leaf discs; settings: foliar, 144 h, application rate 200 ppm, aphid population of mixed ages, 6 days after infestation
Description: Myzus persicae (Green Peach Aphid): Feeding/Contact Activity
Sunflower leaf discs were placed onto agar in a 24-well microtiter plate and sprayed with aqueous test solutions prepared from 10,000 ppm DMSO stock solutions. After drying, the leaf discs were infested with an aphid population of mixed ages. The samples were assessed for mortality 6 days after infestation.

[2] = system: Myzus persicae (Green Peach Aphid); test: Myzus persicae systemic activity, pea seedling roots in test solution; settings: 144 h, test rate 24 ppm, systemic via pea seedling roots, 6 days
Description: Myzus persicae (Green Peach Aphid). Systemic Activity
Roots of pea seedlings infested with an aphid population of mixed ages were placed directly into aqueous test solutions prepared from 10,000 ppm DMSO stock solutions. The samples were assessed for mortality 6 days after placing seedlings into test solutions.

[3] = system: Myzus persicae (Green Peach Aphid); test: Myzus persicae intrinsic activity, sucrose solution under Parafilm; settings: 120 h, test rate 12 ppm, 5 days after infestation
From the text: Myzus persicae (Green Peach Aphid). Intrinsic Activity
Test compounds prepared from 10,000 ppm DMSO stock solutions were applied by pipette into 24-well microtiter plates and mixed with sucrose solution. The plates were closed with a stretched Parafilm. A plastic stencil with 24 holes was placed onto the plate and infested pea seedlings were placed directly on the Parafilm. The infested plate was closed with a gel blotting paper and another plastic stencil and then turned upside down. The samples were assessed for mortality 5 days after infestation.

[4] = system: neonicotinoid-resistant Myzus persicae; test: Myzus persicae (neonicotinoid-resistant) mixed population, contact/feeding, pepper plants; settings: 120 h, neonicotinoid-resistant strain on pepper plants, 5 days after treatment, read-out: control (mortality)
Description: Myzus persicae (Neonicotinoid-Resistant, Green Peach Aphid), Mixed Population, Contact/Feeding.
Pepper plants were infested with mixed aged neonicotinoid-resistant aphid population and were treated 1 day after infestation with diluted test solutions in a spray chamber. 5 days after treatment, samples were assessed for mortality.

[5] = system: Bemisia tabaci (Cotton White Fly); test: Bemisia tabaci (cotton white fly) feeding/contact activity, cotton leaf discs; settings: foliar, 144 h, application rate 200 ppm, adult white flies, 6 days after incubation
Description: Bemisia tabaci (Cotton White Fly): Feeding/Contact Activity
Cotton leaf discs were placed on agar in 24-well microtiter plates and sprayed with aqueous test solutions prepared from 10,000 ppm DMSO stock solutions. After drying the leaf discs were infested with adult white flies. The samples were checked for mortality 6 days after incubation.

[6] = system: Nilaparvata lugens (Brown Plant Hopper, metabolic neonicotinoid-resistant); test: Nilaparvata lugens (metabolic neonicotinoid-resistant) larvicide, feeding/contact, rice plants; settings: 168 h, N3 nymphs, neonicotinoid-resistant strain, 7 days after treatment, read-out: control (mortality and growth regulation)
Description: Nilaparvata lugens (Brown Plant Hopper—Metabolic Neonicotinoid-Resistant), Larvicide, Feeding/Contact
Rice plants were treated with the diluted test solutions in a spray chamber. After drying, the plants were infested with ˜20 N3 nymphs. 7 days after the treatment, samples were assessed for mortality and growth regulation.

Cn1ccc(-n2c3cccn(Cc4ccc(Cl)nc4)c-3nc2=O)n1 [Compound A2, 4-[(6-chloro-3-pyridyl)methyl]-1-(1-methylpyrazol-3-yl)imidazo[4,5-b]pyridin-2-one]
≥ 80%: mortality at 200 ppm [1] | mortality at 24 ppm [2] | mortality at 12 ppm [3] | mortality at 200 ppm [4]

Cn1cc(-n2c3cccn(Cc4ccc(Cl)nc4)c-3nc2=O)cn1 [Compound A3, 4-[(6-chloro-3-pyridyl)methyl]-1-(1-methylpyrazol-4-yl)imidazo[4,5-b]pyridin-2-one]
≥ 80%: mortality at 200 ppm [5] | mortality at 200 ppm [1] | mortality at 24 ppm [2] | mortality at 12 ppm [3] | mortality at 200 ppm [6] | mortality at 200 ppm [4]

O=c1nc2n(Cc3ccc(Cl)nc3)cccc-2n1-c1ccc(C(F)(F)F)cc1 [Compound A13, 4-[(6-chloro-3-pyridyl)methyl]-1-[4-(trifluoromethyl)phenyl]imidazo[4,5-b]pyridin-2-one]
≥ 80%: mortality at 200 ppm [5] | mortality at 200 ppm [1] | mortality at 12 ppm [3]

O=c1nc2n(Cc3ccc(Cl)nc3)cccc-2n1-c1cccc(F)c1 [Compound A31, 4-[(6-chloro-3-pyridyl)methyl]-1-(3-fluorophenyl)imidazo[4,5-b]pyridin-2-one]
≥ 80%: mortality at 24 ppm [2] | mortality at 12 ppm [3] | mortality at 200 ppm [6]

O=c1nc2n(Cc3ccc(Cl)nc3)cccc-2n1-c1cccnc1 [Compound A33, 4-[(6-chloro-3-pyridyl)methyl]-1-(3-pyridyl)imidazo[4,5-b]pyridin-2-one]
≥ 80%: mortality at 200 ppm [1] | mortality at 24 ppm [2] | mortality at 12 ppm [3] | mortality at 200 ppm [6]

O=c1nc2n(Cc3ccc(Cl)nc3)cccc-2n1-c1ccccc1 [Compound A34, 4-[(6-chloro-3-pyridyl)methyl]-1-phenyl-imidazo[4,5-b]pyridin-2-one]
≥ 80%: mortality at 200 ppm [1] | mortality at 24 ppm [2] | mortality at 12 ppm [3] | mortality at 200 ppm [6]

O=c1nc2n(Cc3ccc(Cl)nc3)cccc-2n1-c1ccc(OC(F)(F)F)cc1 [Compound A39, 4-[(6-chloro-3-pyridyl)methyl]-1-[4-(trifluoromethoxy)phenyl]imidazo[4,5-b]pyridin-2-one]
≥ 80%: mortality at 200 ppm [5] | mortality at 200 ppm [1] | mortality at 12 ppm [3]

N#Cc1ccccc1-n1c2cccn(Cc3ccc(Cl)nc3)c-2nc1=O [Compound A40, 2-[4-[(6-chloro-3-pyridyl)methyl]-2-oxo-imidazo[4,5-b]pyridin-1-yl]benzonitrile]
≥ 80%: mortality at 200 ppm [1] | mortality at 24 ppm [2] | mortality at 12 ppm [3]

CC(C)n1cc(-n2c3cccn(Cc4ccc(Cl)nc4)c-3nc2=O)cn1 [Compound A62, 4-[(6-chloro-3-pyridyl)methyl]-1-(1-isopropylpyrazol-4-yl)imidazo[4,5-b]pyridin-2-one]
≥ 80%: mortality at 200 ppm [5] | mortality at 200 ppm [1] | mortality at 12 ppm [3]

O=c1nc2n(Cc3ccc(Cl)nc3)cccc-2n1-c1cncs1 [Compound A66, 4-[(6-chloro-3-pyridyl)methyl]-1-thiazol-5-yl-imidazo[4,5-b]pyridin-2-one]
≥ 80%: mortality at 200 ppm [5] | mortality at 200 ppm [1] | mortality at 12 ppm [3]

O=c1nc2n(Cc3ccc(Cl)nc3)cccc-2n1-c1ccoc1 [Compound A70, 4-[(6-chloro-3-pyridyl)methyl]-1-(3-furyl)imidazo[4,5-b]pyridin-2-one]
≥ 80%: mortality at 200 ppm [5] | mortality at 12 ppm [3]

O=c1nc2n(Cc3ccc(Cl)nc3)cccc-2n1-c1cnn(C(F)(F)F)c1 [Compound A80, 4-[(6-chloro-3-pyridyl)methyl]-1-[1-(trifluoromethyl)pyrazol-4-yl]imidazo[4,5-b]pyridin-2-one]
≥ 80%: mortality at 200 ppm [5] | mortality at 200 ppm [1] | mortality at 12 ppm [3] | mortality at 200 ppm [4]

COc1ccccc1-n1c2cccn(Cc3ccc(Cl)nc3)c-2nc1=O [Compound A82, 4-[(6-chloro-3-pyridyl)methyl]-1-(2-methoxyphenyl)imidazo[4,5-b]pyridin-2-one]
≥ 80%: mortality at 200 ppm [1] | mortality at 24 ppm [2] | mortality at 12 ppm [3]

CCCn1cc(-n2c3cccn(Cc4ccc(Cl)nc4)c-3nc2=O)cn1 [Compound A83, 4-[(6-chloro-3-pyridyl)methyl]-1-(1-propylpyrazol-4-yl)imidazo[4,5-b]pyridin-2-one]
≥ 80%: mortality at 200 ppm [5] | mortality at 200 ppm [1] | mortality at 24 ppm [2] | mortality at 12 ppm [3]

O=c1nc2n(Cc3ccc(Cl)nc3)cccc-2n1-c1cnn(CC(F)(F)F)c1 [Compound A85, 4-[(6-chloro-3-pyridyl)methyl]-1-[1-(2,2,2-trifluoroethyl)pyrazol-4-yl]imidazo[4,5-b]pyridin-2-one]
≥ 80%: mortality at 200 ppm [5] | mortality at 200 ppm [1] | mortality at 24 ppm [2] | mortality at 12 ppm [3]

Cn1nc(C(F)(F)F)cc1-n1c2cccn(Cc3ccc(Cl)nc3)c-2nc1=O [Compound A88, 4-[(6-chloro-3-pyridyl)methyl]-1-[2-methyl-5-(trifluoromethyl)pyrazol-3-yl]imidazo[4,5-b]pyridin-2-one]
≥ 80%: mortality at 200 ppm [5] | mortality at 200 ppm [1] | mortality at 24 ppm [2] | mortality at 12 ppm [3]

CC(C)n1nccc1-n1c2cccn(Cc3ccc(Cl)nc3)c-2nc1=O [Compound A94, 4-[(6-chloro-3-pyridyl)methyl]-1-(2-isopropylpyrazol-3-yl)imidazo[4,5-b]pyridin-2-one]
≥ 80%: mortality at 200 ppm [5] | mortality at 200 ppm [1] | mortality at 24 ppm [2] | mortality at 12 ppm [3]

Cn1cc(-n2c3cccn(Cc4ccc(Cl)nc4)c-3nc2=O)c(C(F)F)n1 [Compound A95, 4-[(6-chloro-3-pyridyl)methyl]-1-[3-(difluoromethyl)-1-methyl-pyrazol-4-yl]imidazo[4,5-b]pyridin-2-one]
≥ 80%: mortality at 200 ppm [1] | mortality at 24 ppm [2] | mortality at 12 ppm [3]

Cn1cc(-n2c3cccn(Cc4ccc(Cl)nc4)c-3nc2=O)c(C(F)(F)F)n1 [Compound A96, 4-[(6-chloro-3-pyridyl)methyl]-1-[1-methyl-3-(trifluoromethyl)pyrazol-4-yl]imidazo[4,5-b]pyridin-2-one]
≥ 80%: mortality at 200 ppm [5] | mortality at 200 ppm [1] | mortality at 24 ppm [2] | mortality at 12 ppm [3]

Cn1ncc(-n2c3cccn(Cc4ccc(Cl)nc4)c-3nc2=O)c1C(F)F [Compound A97, 4-[(6-chloro-3-pyridyl)methyl]-1-[5-(difluoromethyl)-1-methyl-pyrazol-4-yl]imidazo[4,5-b]pyridin-2-one]
≥ 80%: mortality at 200 ppm [1] | mortality at 24 ppm [2] | mortality at 12 ppm [3]

Cc1nn(C(F)F)cc1-n1c2cccn(Cc3ccc(Cl)nc3)c-2nc1=O [Compound A98, 4-[(6-chloro-3-pyridyl)methyl]-1-[1-(difluoromethyl)-3-methyl-pyrazol-4-yl]imidazo[4,5-b]pyridin-2-one]
≥ 80%: mortality at 200 ppm [1] | mortality at 24 ppm [2] | mortality at 12 ppm [3]

Cc1c(-n2c3cccn(Cc4ccc(Cl)nc4)c-3nc2=O)cnn1C(F)F [Compound A99, 4-[(6-chloro-3-pyridyl)methyl]-1-[1-(difluoromethyl)-5-methyl-pyrazol-4-yl]imidazo[4,5-b]pyridin-2-one]
≥ 80%: mortality at 200 ppm [1] | mortality at 24 ppm [2] | mortality at 12 ppm [3]

CCc1nn(C)cc1-n1c2cccn(Cc3ccc(Cl)nc3)c-2nc1=O [Compound A100, 4-[(6-chloro-3-pyridyl)methyl]-1-(3-ethyl-1-methyl-pyrazol-4-yl)imidazo[4,5-b]pyridin-2-one]
≥ 80%: mortality at 200 ppm [5] | mortality at 200 ppm [1] | mortality at 24 ppm [2] | mortality at 12 ppm [3]

CCn1cc(-n2c3cccn(Cc4ccc(Cl)nc4)c-3nc2=O)c(C)n1 [Compound A101, 4-[(6-chloro-3-pyridyl)methyl]-1-(1-ethyl-3-methyl-pyrazol-4-yl)imidazo[4,5-b]pyridin-2-one]
≥ 80%: mortality at 200 ppm [5] | mortality at 200 ppm [1] | mortality at 12 ppm [3]

Cc1nn(C(C)C)cc1-n1c2cccn(Cc3ccc(Cl)nc3)c-2nc1=O [Compound A102, 4-[(6-chloro-3-pyridyl)methyl]-1-(1-isopropyl-3-methyl-pyrazol-4-yl)imidazo[4,5-b]pyridin-2-one]
≥ 80%: mortality at 200 ppm [5] | mortality at 200 ppm [1] | mortality at 24 ppm [2] | mortality at 12 ppm [3]
